Reference: US10399966B2, “Compounds for treatment of trypanosomes and neurological pathogens and uses thereof” (The University of North Carolina at Chapel Hill, priority 2016, dated 2019)
Counter-ions that a name gives are not always drawn. Like-named read-outs stand apart in the source and are kept apart here.

Tested on: T. b. brucei
Assay: In vitro antitrypanosomal activity against T. brucei (growth inhibition)
Format: cell-based, Trypanosoma brucei
Method: Primary hits from the screen were further characterized using a dose-response assay format to determine the EC50. In parallel, the cytotoxicities of these compounds were determined against a proliferating human hepatoma cell line (Huh7). […] SI—CC50/EC50). The final set of confirmed T. brucei hits consisted of 1035 inhibitors. […] In vitro antitrypanosomal activities against T. b. rhodesiense (STIB9000) and cytotoxicities against L6 rat myoblast cells were measured following established protocols (Orhan et al., Mar. Drugs 8:47 (2010). […] All wells including negative controls contained a final of 0.4% DMSO. After incubation of the plates at 37° C. for 48 h, the parasite density was determined using the CellTiter-Glo reagent (Promega), a firefly luciferase assay system that measures the amount of cellular ATP present in plate wells.

[1] = Trypanosoma brucei, Table 17, read-out: T. b. brucei EC50
[2] = Trypanosoma brucei, Table 17, read-out: T. b. brucei EC90
[3] = Trypanosoma brucei, Table 9, read-out: T. brucei EC50
[4] = Trypanosoma brucei, Table 9, read-out: T. brucei EC90

Row | Compound | EC50 [1] | EC90 [2] | EC50 [3] | EC90 [4] | also measured
1 | Cc1nc(C)c(C(=O)Nc2ccc3sc(-c4ccc(F)c(F)c4)nc3c2)s1 [Compound 62] | > 20 µM | > 20 µM | – | – | –
2 | O=C(Nc1ccc2sc(-c3ccc(F)c(F)c3)nc2c1)c1cncs1 [Compound 61] | 3.83 µM | 7.37 µM | – | – | –
3 | O=C(Nc1ccc2sc(-c3cccc(F)c3)nc2c1)N1CCN(C(=O)Nc2ccc3sc(-c4cccc(F)c4)nc3c2)CC1 [Compound 31, N^1,N^4-Bis(2-(3-fluorophenyl)benzothiazol-5-yl)piperazine-1,4-dicarboxamide] | – | – | > 20 µM | > 20 µM | –
4 | O=C(Nc1ccc2[nH]c(-c3ccccc3)nc2c1)c1ccccc1 [Compound 14, 5-Benzamido-2-phenylbenzimidazole hydrochloride] | – | – | – | – | EC50 (Trypanosoma brucei, read-out: T. brucei EC50): > 10 µM; EC90 (Trypanosoma brucei, read-out: T. brucei EC90): > 10 µM
5 | O=C(Nc1ccc2sc(-c3ccc(F)c(F)c3)nc2c1Br)N1CC[C@H](F)C1 [Compound 55] | > 20 µM | > 20 µM | – | – | –
6 | O=C(Nc1ccc2sc(-c3ccccc3)nc2c1)c1nccs1 [Compound 20, N-(2-Phenylbenzo[d]thiazol-5-yl)thiazole-2-carboxamide] | – | – | 5.86 µM | > 10 µM | –
7 | N-(2-(3,4-Difluorophenyl)benzo[d]thiazol-5-yl)oxazole-4-carboxamide [Compound 57] | – | – | – | – | EC50 (Table 17, read-out: T. b. brucei EC50): > 20 µM; EC90 (Table 17, read-out: T. b. brucei EC90): > 20 µM
8 | O=C(Nc1ccc2sc(-c3ccccc3)nc2c1)c1cscn1 [Compound 21, N-(2-Phenylbenzo[d]thiazol-5-yl)thiazole-4-carboxamide] | – | – | > 10 µM | > 10 µM | –
9 | O=C(Nc1cnc2sc(-c3ccc(F)c(F)c3)nc2c1)N1CC[C@H](F)C1 [Compound 56, (S)-2-(3,4-Difluorophenyl)-5-(3-fluoro-N-pyrrolidylamido)-7-azabenzothiazole] | 0.181 µM | 0.364 µM | – | – | –
10 | O=C(Nc1ccc2sc(-c3ccc(F)c(F)c3)nc2c1)c1cnco1 [Compound 58, N-(2-(3,4-Difluorophenyl)benzo[d]thiazol-5-yl)oxazole-5-carboxamide] | > 20 µM | > 20 µM | – | – | –
11 | NC1CCN(C(=O)Nc2ccc3sc(-c4ccc(F)c(F)c4)nc3c2)C1 (centres unmarked) [Compound 37, 2-(3,4-Difluorophenyl)-5-(3-amino-N-pyrrolidylamido)benzothiazole] | – | – | 2.32 µM | 2.72 µM | –
12 | O=C(Nc1ccc2sc(-c3ccccc3)nc2c1)c1ccsc1 [Compound 19, 2-Phenyl-5-(3-thienylamido)benzothiazole] | – | – | 1.57 µM | 2.49 µM | –
13 | Cc1nc(C(=O)Nc2ccc3sc(-c4ccc(F)c(F)c4)nc3c2)c(C)o1 [Compound 60] | > 20 µM | > 20 µM | – | – | –
